Laboratory results: ChEMBL document CHEMBL1201862, “PubChem BioAssay data set” (2004)
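Interpolation was linear, between the two tested concentrations surrounding the appropriate level; five concentrations were tested over 48 hours in 96-well plates. At the GI50, growth is halved.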 The source made the active and inactive calls. Rule as the data show it: active = GI50 up to about 1.1 µM and inactive = higher.

How the values were obtained:
Assay in all cases: NCI anticancer screen, dose series, 48 h
[1] = system: A549
[2] = system: EKVX
[3] = system: HCT-15
[4] = system: HL-60
[5] = system: HOP-92
[6] = system: HT-29
[7] = system: IGROV-1
[8] = system: KM12
[9] = system: LOX IMVI
[10] = system: NCI-H522
[11] = system: OVCAR-5
[12] = system: SF-268
[13] = system: SF-295
[14] = system: SK-MEL-28
[15] = system: SNB-75
[16] = system: SW-620
[17] = system: T47D
[18] = system: UO-31
[19] = system: HCC 2998
[20] = system: SR

Compound | GI50 [1] | GI50 [2] | GI50 [3] | GI50 [4] | GI50 [5] | GI50 [6] | GI50 [7] | GI50 [8] | GI50 [9] | GI50 [10] | GI50 [11] | GI50 [12] | GI50 [13] | GI50 [14] | GI50 [15] | GI50 [16] | GI50 [17] | GI50 [18] | GI50 [19] | GI50 [20]
CC1(C)N=C(N)N=C(N)N1c1cccc(C(=O)Nc2ccc(S(=O)(=O)F)cc2)c1 | > 100 µM (inactive) | > 100 µM (inactive) | > 100 µM | > 100 µM (inactive) | > 100 µM (inactive) | > 100 µM (inactive) | > 100 µM (inactive) | > 100 µM (inactive) | > 100 µM (inactive) | > 100 µM (inactive) | > 100 µM (inactive) | > 100 µM (inactive) | > 100 µM (inactive) | > 100 µM (inactive) | > 100 µM (inactive) | > 100 µM (inactive) | > 100 µM (inactive) | > 100 µM (inactive) | – | –
Cc1cccc(O)c(=O)c1 | 24.9 µM (inactive) | 23.6 µM (inactive) | 8.3 µM | 3.44 µM (inactive) | 89.3 µM (inactive) | 19 µM (inactive) | 37.4 µM (inactive) | 20.3 µM (inactive) | 7.03 µM (inactive) | 6.79 µM (inactive) | 47.6 µM (inactive) | 21.2 µM (inactive) | 39.7 µM (inactive) | 49.4 µM (inactive) | 83.6 µM (inactive) | 16.4 µM (inactive) | – | 73.3 µM (inactive) | 44.4 µM (inactive) | 15.2 µM (inactive)
CC(C)(C)OC(=O)CC(NC(=O)OC(C)(C)C)C(=O)Oc1ccc([N+](=O)[O-])cc1 (centres undefined) | > 100 µM (inactive) | > 100 µM (inactive) | > 100 µM | – | > 100 µM (inactive) | > 100 µM (inactive) | > 100 µM (inactive) | > 100 µM (inactive) | > 100 µM (inactive) | > 100 µM (inactive) | > 100 µM (inactive) | 3.2 µM (inactive) | > 100 µM (inactive) | > 100 µM (inactive) | > 100 µM (inactive) | > 100 µM (inactive) | 89.5 µM (inactive) | > 100 µM (inactive) | – | –
C=CCN1CCC(OC(=O)C(O)(/C=C\CC)C2CCCC2)CC1 (centres undefined) | > 100 µM (inactive) | > 100 µM (inactive) | > 100 µM | > 100 µM (inactive) | 38.2 µM (inactive) | > 100 µM (inactive) | > 100 µM (inactive) | – | > 100 µM (inactive) | > 100 µM (inactive) | > 100 µM (inactive) | > 100 µM (inactive) | > 100 µM (inactive) | > 100 µM (inactive) | > 100 µM (inactive) | – | > 100 µM (inactive) | > 100 µM (inactive) | – | –
CC(C)n1c(=O)[nH]n(-c2ccccc2)c1=O | > 100 µM (inactive) | > 100 µM (inactive) | > 100 µM | > 100 µM (inactive) | > 100 µM (inactive) | > 100 µM (inactive) | > 100 µM (inactive) | > 100 µM (inactive) | > 100 µM (inactive) | > 100 µM (inactive) | > 100 µM (inactive) | > 100 µM (inactive) | > 100 µM (inactive) | > 100 µM (inactive) | > 100 µM (inactive) | > 100 µM (inactive) | – | > 100 µM (inactive) | – | > 100 µM (inactive)
COc1cc(C2c3cc4c(cc3[C@@H](Nc3ccc(N(C)C)cc3)[C@H]3COC(=O)C23)OCO4)cc(OC)c1O (some centres undefined) | 0.0871 µM (active) | 0.456 µM (active) | 0.838 µM | 0.193 µM (active) | 0.36 µM (active) | 1.13 µM (inactive) | 3.56 µM (inactive) | 1.24 µM (inactive) | 0.817 µM (active) | 0.873 µM (active) | 0.818 µM (active) | 0.351 µM (active) | 0.122 µM (active) | 3.79 µM (inactive) | 0.324 µM (active) | 0.807 µM (active) | – | 0.607 µM (active) | 1.27 µM (inactive) | 0.0127 µM (active)
CC1(C)CCCC2(C)[C@@H]1CC[C@@]13CC(=O)[C@@](C)(CC[C@@H]21)C3 (some centres undefined) | 85.1 µM (inactive) | – | 97.5 µM | 52.4 µM (inactive) | > 100 µM (inactive) | 30 µM (inactive) | > 100 µM (inactive) | 80.5 µM (inactive) | 39.4 µM (inactive) | 20.9 µM (inactive) | > 100 µM (inactive) | 95.7 µM (inactive) | > 100 µM (inactive) | > 100 µM (inactive) | > 100 µM (inactive) | > 100 µM (inactive) | – | > 100 µM (inactive) | > 100 µM (inactive) | 42.5 µM (inactive)
COc1ccc(-c2csc(=[N+]3CCCCC3)s2)cc1 | 1.94 µM (inactive) | 6.76 µM (inactive) | 47.3 µM | 2.29 µM (inactive) | 2.38 µM (inactive) | 3.01 µM (inactive) | 4.54 µM (inactive) | 2.36 µM (inactive) | 4.83 µM (inactive) | 1.72 µM (inactive) | 8.83 µM (inactive) | 1.42 µM (inactive) | 1.98 µM (inactive) | 6 µM (inactive) | 1.23 µM (inactive) | 2.88 µM (inactive) | – | > 100 µM (inactive) | 3.85 µM (inactive) | 2.26 µM (inactive)
